The target in assay [1] is T1, 14-3-3σ/C-RAF259 (Homo sapiens, UniProt P31947). Briefly: Fluorescence anisotropy (FA) compound titration. It counts as binding. To be noted: 10 nM C-RAF259-FAM 10-mer, 5 μΜ 14-3-3σ, overnight; for EC50: read-out: Compound titrations EC50 value C-RAF259. The protocol: (§1) In analogy to our previous work, two orthogonal assays were used for screening (Figure S2). […] Dose responses of compounds were performed in the absence and presence of the C-RAF259 phospho-peptide to distinguish between neutral binders and cooperative molecular glues. The experiment was performed as a time course, with measurements every 8 h, after an 1 h incubation. Additionally, the compounds were tested in a fluorescence anisotropy (FA) assay in the presence of the 5-carboxyfluorescein-(FAM)-labeled C-RAF259 peptide. […] The full dose–response data for all compounds are available in the SI (Tables S2–S5, Figures S5–S8, Figures S15–S18, Figures S25–S32, Figures S37–S39). The dose–response data from both assays were also visually compared in the form of bar graphs. […] For FA experiments, the EC50 values from the overnight measurement were calculated and plotted as bar graphs showing the […] log EC50 value (pEC50). Compounds acting as MGs were expected to show increases in both types of bar graphs.
(§2) transferred in the assay plates.
(§3) The reacton mixtures were incubated
(§4) dispensed in the assay plates.
(§5) incubaton at room temperature .
(Fluorescence polarisation rises when a labelled molecule tumbles more slowly, as on binding a larger partner.)

In assay [2] the target is T1, 14-3-3σ/C-RAF259. Briefly: FA protein titration, C-RAF259 peptide. To be noted: appKd DMSO / appKd compound.
The target of assay [3] is T2, 14-3-3σ (Homo sapiens, UniProt P31947).
T2 sequence (P31947 1-248): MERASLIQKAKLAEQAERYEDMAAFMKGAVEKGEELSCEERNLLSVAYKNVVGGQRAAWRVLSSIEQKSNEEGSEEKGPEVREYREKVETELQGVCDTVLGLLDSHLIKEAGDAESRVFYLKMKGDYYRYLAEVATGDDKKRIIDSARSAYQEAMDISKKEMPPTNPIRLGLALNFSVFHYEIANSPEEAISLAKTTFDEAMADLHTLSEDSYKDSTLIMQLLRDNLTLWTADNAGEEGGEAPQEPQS
Kind of assay: Intact mass spectrometry assay, apo (no peptide). Also on record: full-length for mass spectrometry and fluorescence anisotropy assays; made in house; host or cells: E. coli Rosetta 2(DE3)pLysS, pPROEX HTb vector. To be noted: 1 μM compound, 100 nM 14-3-3σ. In kind it is binding. The protocol:
as §1, §2, §3, §4, §5

Assay [4] concerns the target T1, 14-3-3σ/C-RAF259. Kind of assay: Intact mass spectrometry assay with C-RAF259 phospho-peptide. In kind it is binding. Also on record: full-length for mass spectrometry and fluorescence anisotropy assays; made in house; host or cells: E. coli Rosetta 2(DE3)pLysS (14-3-3σ); peptides from Elim Biopharmaceuticals. To be noted: 1 μM compound, 100 nM 14-3-3σ, 18 µM peptide. The protocol: as §1, §2, §3, §4, §5

Regarding `O=C(CCl)NCC1CCN(S(=O)(=O)c2ccc(OC(F)(F)F)cc2)CC1` [Compound 19], the EC50 in assay [1] worked out at 13 ± 3 µM. In addition, in assay [2], the “Fold stabilization (100 µM compound), C-RAF259 (10mer)” value (“Fold stabilization (100 µM compound)” for short) came out at 14 fold. In assay [3], the “% bound, APO, 1h” value was 0%; the “% bound, APO, 8h” value came to 0.5%; the “% bound, APO, 16h” value is reported as 2.5%; the “% bound, APO, 24h” value was found to be 6.5%. Also, in assay [4], the “% bound, C-RAF259 (11mer), 1h” value is reported as 20.5%; the “% bound, C-RAF259 (11mer), 8h” value came out at 41.3%; the “% bound, C-RAF259 (11mer), 16h” value came to 69.5%; the “% bound, C-RAF259 (11mer), 24h” value stood at 91.3%.

Take `O=C(CCl)NCC1CCN(S(=O)(=O)c2ccc(Br)c(F)c2F)CC1` [Compound 38]: in assay [1], the EC50 worked out at 2 ± 1 µM. The “Fold stabilization (100 µM compound)” value in assay [2] is on record as 39 fold. Further, in assay [3], the “% bound, APO, 1h” value was 0%; the “% bound, APO, 8h” value is 0.9%; the “% bound, APO, 16h” value is 2.9%; the “% bound, APO, 24h” value is listed as 4.4%. Further, in assay [4], the “% bound, C-RAF259 (11mer), 1h” value was found to be 28%; the “% bound, C-RAF259 (11mer), 8h” value came to 43.9%; the “% bound, C-RAF259 (11mer), 16h” value turned out to be 61.9%; the “% bound, C-RAF259 (11mer), 24h” value came to 83.3%.

Regarding `Cc1ccc(S(=O)(=O)N2CCC(CNC(=O)CCl)CC2)cc1` [Compound 24], the EC50 in assay [1] turned out to be 14 ± 1 µM. The “Fold stabilization (100 µM compound)” value in assay [2] is 21 fold. Moreover, in assay [3], the “% bound, APO, 1h” value amounted to 0%; the “% bound, APO, 8h” value is 0.5%; the “% bound, APO, 16h” value is recorded as 0.5%; the “% bound, APO, 24h” value is 1.5%. Further, in assay [4], the “% bound, C-RAF259 (11mer), 1h” value was found to be 7.3%; the “% bound, C-RAF259 (11mer), 8h” value is 13.7%; the “% bound, C-RAF259 (11mer), 16h” value was found to be 26.7%; the “% bound, C-RAF259 (11mer), 24h” value is 51.8%.

For the molecule `O=C(CCl)NCC1CCN(S(=O)(=O)c2ccccc2F)CC1` [Compound 15], the EC50 in assay [1] came out at 87 ± 9 µM. In assay [3], the “% bound, APO, 1h” value is 0.5%; the “% bound, APO, 8h” value was 1.9%; the “% bound, APO, 16h” value is 2.4%; the “% bound, APO, 24h” value is recorded as 2.4%. Moreover, in assay [4], the “% bound, C-RAF259 (11mer), 1h” value turned out to be 3.3%; the “% bound, C-RAF259 (11mer), 8h” value was determined as 8.2%; the “% bound, C-RAF259 (11mer), 16h” value came to 13.7%; the “% bound, C-RAF259 (11mer), 24h” value was determined as 23.3%.

With `O=C(C(Cl)Cl)N1CC2(CCN(S(=O)(=O)c3ccc(Br)c(F)c3)CC2(F)F)C1` [Compound 74], in assay [1], the “Compound titrations EC50 value C-RAF259” value was “completely inactive” and the EC50 is over 1000 µM. Further, in assay [3], the “% bound, APO, 1h” value worked out at 0%; the “% bound, APO, 8h” value was found to be 0%; the “% bound, APO, 16h” value was 0%; the “% bound, APO, 24h” value came to 0%. In addition, in assay [4], the “% bound, C-RAF259 (11mer), 1h” value came to 0%; the “% bound, C-RAF259 (11mer), 8h” value was 0%; the “% bound, C-RAF259 (11mer), 16h” value was determined as 0%; the “% bound, C-RAF259 (11mer), 24h” value is on record as 4.7%.

As to `C=C(F)C(=O)N1CC2(CCN(S(=O)(=O)c3ccc(Br)c(F)c3)CC2(F)F)C1` [Compound 75], in assay [1], the “Compound titrations EC50 value C-RAF259” value was “completely inactive” and the EC50 was over 1000 µM. Besides, in assay [3], the “% bound, APO, 1h” value is 0%; the “% bound, APO, 8h” value came out at 0%; the “% bound, APO, 16h” value amounted to 0%; the “% bound, APO, 24h” value was 0%. In addition, in assay [4], the “% bound, C-RAF259 (11mer), 1h” value is recorded as 0%; the “% bound, C-RAF259 (11mer), 8h” value worked out at 0%; the “% bound, C-RAF259 (11mer), 16h” value amounted to 0%; the “% bound, C-RAF259 (11mer), 24h” value is listed as 2.9%.

Consider `N#Cc1ccc(S(=O)(=O)N2CCC(CNC(=O)CCl)CC2)cc1` [Compound 20], for which the EC50 in assay [1] is over 150 µM. Further, in assay [3], the “% bound, APO, 1h” value was determined as 0%; the “% bound, APO, 8h” value is 0.5%; the “% bound, APO, 16h” value worked out at 1.5%; the “% bound, APO, 24h” value was 2.9%. Besides, in assay [4], the “% bound, C-RAF259 (11mer), 1h” value is 4.7%; the “% bound, C-RAF259 (11mer), 8h” value is 12.1%; the “% bound, C-RAF259 (11mer), 16h” value amounted to 23.9%; the “% bound, C-RAF259 (11mer), 24h” value was found to be 42.3%.

`O=C(CCl)N1CC2(CC(NS(=O)(=O)c3ccc(Br)c(F)c3)CO2)C1` (stereo not shown) [Compound 67]: the EC50 in assay [1] turned out to be 14 ± 1 µM. In assay [3], the “% bound, APO, 1h” value is reported as 2.9%; the “% bound, APO, 8h” value stood at 9.1%; the “% bound, APO, 16h” value amounted to 15.9%; the “% bound, APO, 24h” value is listed as 23%. For the same molecule, in assay [4], the “% bound, C-RAF259 (11mer), 1h” value came out at 15%; the “% bound, C-RAF259 (11mer), 8h” value amounted to 30.4%; the “% bound, C-RAF259 (11mer), 16h” value is listed as 55.6%; the “% bound, C-RAF259 (11mer), 24h” value is 81.5%.

Take `O=C(CCl)NCC1CCN(S(=O)(=O)C2CC3(C2)CC(F)(F)C3)CC1` [Compound 35]: the EC50 in assay [1] is over 1000 µM. Besides, in assay [3], the “% bound, APO, 1h” value worked out at 0%; the “% bound, APO, 8h” value was determined as 0%; the “% bound, APO, 16h” value was 0%; the “% bound, APO, 24h” value is 0.5%. Further, in assay [4], the “% bound, C-RAF259 (11mer), 1h” value came out at 0%; the “% bound, C-RAF259 (11mer), 8h” value is given as 0%; the “% bound, C-RAF259 (11mer), 16h” value came to 0%; the “% bound, C-RAF259 (11mer), 24h” value was determined as 3.8%.

With `O=C(CCl)NCC1CCN(S(=O)(=O)c2ccc(F)cc2F)CC1` [Compound 27], the EC50 in assay [1] was over 150 µM. Besides, in assay [3], the “% bound, APO, 1h” value worked out at 1%; the “% bound, APO, 16h” value amounted to 3.8%; the “% bound, APO, 24h” value is 5.2%. In assay [4], the “% bound, C-RAF259 (11mer), 1h” value worked out at 6.9%; the “% bound, C-RAF259 (11mer), 8h” value turned out to be 14.1%; the “% bound, C-RAF259 (11mer), 16h” value is reported as 27.5%; the “% bound, C-RAF259 (11mer), 24h” value is given as 50.3%.

Turning to `O=C(CCl)NCC1CCN(S(=O)(=O)Cc2ccc(F)cc2)CC1` [Compound 7], in assay [1], the EC50 is over 1000 µM. Also, in assay [3], the “% bound, APO, 1h” value was determined as 1%; the “% bound, APO, 8h” value is 1.9%; the “% bound, APO, 16h” value is recorded as 1.9%; the “% bound, APO, 24h” value is on record as 2.9%. In addition, in assay [4], the “% bound, C-RAF259 (11mer), 1h” value is recorded as 1.5%; the “% bound, C-RAF259 (11mer), 8h” value is reported as 1.5%; the “% bound, C-RAF259 (11mer), 16h” value was 2.5%; the “% bound, C-RAF259 (11mer), 24h” value was found to be 4.7%.

As to `O=C(CCl)N1CC2(CCN(S(=O)(=O)c3ccc(Br)c(F)c3)CC2(F)F)C1` [Compound 52], in assay [1], the EC50 was 94 ± 9 µM. In addition, in assay [3], the “% bound, APO, 1h” value was found to be 2.9%; the “% bound, APO, 8h” value was 11.3%; the “% bound, APO, 16h” value worked out at 18.5%; the “% bound, APO, 24h” value is reported as 28.6%. In addition, in assay [4], the “% bound, C-RAF259 (11mer), 1h” value was found to be 25%; the “% bound, C-RAF259 (11mer), 8h” value amounted to 45.1%; the “% bound, C-RAF259 (11mer), 16h” value turned out to be 64.3%; the “% bound, C-RAF259 (11mer), 24h” value is on record as 80.2%.

Consider `O=C(CCl)NC1CC2(CCN(S(=O)(=O)c3ccc(Br)c(F)c3)CC2)C1` [Compound 55], for which the EC50 in assay [1] is over 1000 µM. In assay [3], the “% bound, APO, 1h” value was found to be 0%; the “% bound, APO, 8h” value was found to be 0.9%; the “% bound, APO, 16h” value is reported as 1.9%; the “% bound, APO, 24h” value is reported as 7.4%. Further, in assay [4], the “% bound, C-RAF259 (11mer), 1h” value was found to be 6.1%; the “% bound, C-RAF259 (11mer), 8h” value turned out to be 9.9%; the “% bound, C-RAF259 (11mer), 16h” value is 20.6%; the “% bound, C-RAF259 (11mer), 24h” value is given as 34.6%.

Take `O=C(CCl)N1CC2(CCN(S(=O)(=O)c3ccc(Br)c(F)c3)CC2)C1` [Compound 49]: in assay [1], the EC50 was 47 ± 4 µM. For the same molecule, in assay [3], the “% bound, APO, 1h” value is 1.9%; the “% bound, APO, 8h” value was 5.2%; the “% bound, APO, 16h” value is listed as 13.8%; the “% bound, APO, 24h” value was 15.9%. For the same molecule, in assay [4], the “% bound, C-RAF259 (11mer), 1h” value was found to be 11.1%; the “% bound, C-RAF259 (11mer), 8h” value was 32.4%; the “% bound, C-RAF259 (11mer), 16h” value amounted to 53.8%; the “% bound, C-RAF259 (11mer), 24h” value came out at 86.6%.
